# Measurements as given in US6737383B1, “Herbicidal oxadiazolidines” (priority 1999, dated 2004).
# How the values were obtained:
# [1] = test system: cocklebur; test: Test B pre/postemergence cocklebur; format: in vivo, Xanthium strumarium; settings: for Cocklebur plant response rating: scale of 0 to 10 where 0 is no effect and 10 is complete control
# Method in brief: (§1)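 Test chemicals in a non-phytotoxic solvent mixture with surfactant were sprayed preemergence onto planted seeds and postemergence onto plants 2 to 18 cm tall (1- to 4-leaf stage). After twelve to sixteen days in a greenhouse, injury was visually rated against untreated controls from 0 (no effect) to 10 (complete control).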
# [2] = test system: purple nutsedge; test: Test B pre/postemergence purple nutsedge; format: in vivo, Cyperus rotundus; settings: for Nutsedge plant response rating: scale of 0 to 10 where 0 is no effect and 10 is complete control
# Method in brief: as §1
# [3] = test system: soybean; test: Test B pre/postemergence soybean; format: in vivo, Glycine max; settings: for Soybean plant response rating: scale of 0 to 10 where 0 is no effect and 10 is complete control
# Method in brief: as §1
# [4] = test system: blackgrass; test: Test B pre/postemergence blackgrass; format: in vivo, Alopecurus myosuroides; settings: for Blackgrass plant response rating: scale of 0 to 10 where 0 is no effect and 10 is complete control
# Method in brief: as §1
# [5] = test system: bedstraw; test: Test B pre/postemergence bedstraw; format: in vivo, Galium aparine; settings: for Bedstraw plant response rating: scale of 0 to 10 where 0 is no effect and 10 is complete control
# Method in brief: as §1
# [6] = test system: morningglory; test: Test B pre/postemergence morningglory; format: in vivo, Ipomoea hederacea; settings: for Morningglory plant response rating: scale of 0 to 10 where 0 is no effect and 10 is complete control
# Method in brief: as §1
# [7] = test system: wild oat; test: Test B pre/postemergence wild oat; format: in vivo, Avena fatua; settings: for Wild oats plant response rating: scale of 0 to 10 where 0 is no effect and 10 is complete control
# Method in brief: as §1
# [8] = test system: sugar beet; test: Test B pre/postemergence sugar beet; format: in vivo, Beta vulgaris; settings: for Sugarbeets plant response rating: scale of 0 to 10 where 0 is no effect and 10 is complete control
# Method in brief: as §1
# [9] = test system: giant foxtail; test: Test B pre/postemergence giant foxtail; format: in vivo, Setaria faberii; settings: for Giant foxtail plant response rating: scale of 0 to 10 where 0 is no effect and 10 is complete control
# Method in brief: as §1
# [10] = test system: wheat; test: Test B pre/postemergence wheat; format: in vivo, Triticum aestivum; settings: for Wheat plant response rating: scale of 0 to 10 where 0 is no effect and 10 is complete control
# Method in brief: as §1
# [11] = test system: crabgrass; test: Test B pre/postemergence crabgrass; format: in vivo, Digitaria sanguinalis; settings: for Crabgrass plant response rating: scale of 0 to 10 where 0 is no effect and 10 is complete control
# Method in brief: as §1
# [12] = test system: surinam grass; test: Test B pre/postemergence surinam grass; format: in vivo, Brachiaria decumbens; settings: for B. signalgrass plant response rating: scale of 0 to 10 where 0 is no effect and 10 is complete control
# Method in brief: as §1
# [13] = test system: pigweed; test: Test B pre/postemergence pigweed; format: in vivo, Amaranthus retroflexus; settings: for Redroot pigweed plant response rating: scale of 0 to 10 where 0 is no effect and 10 is complete control
# Method in brief: as §1
# [14] = test system: corn; test: Test B pre/postemergence corn; format: in vivo, Zea mays; settings: for Corn plant response rating: scale of 0 to 10 where 0 is no effect and 10 is complete control
# Method in brief: as §1
# [15] = test system: rape; test: Test B pre/postemergence rape; format: in vivo, Brassica napus; settings: for Rape plant response rating: scale of 0 to 10 where 0 is no effect and 10 is complete control
# Method in brief: as §1
# [16] = test system: velvetleaf; test: Test B pre/postemergence velvetleaf; format: in vivo, Abutilon theophrasti; settings: for Velvetleaf plant response rating: scale of 0 to 10 where 0 is no effect and 10 is complete control
# Method in brief: as §1
# [17] = Postemergence, Rate 125 g/ha, scale 0 to 10, 0 is no effect, 10 is complete control
# [18] = Postemergence, Rate 250 g/ha, scale 0 to 10, 0 is no effect, 10 is complete control
# [19] = Preemergence, Rate 62 g/ha, scale 0 to 10 (0 no effect, 10 complete control)
# [20] = Rate 500 g/ha, Postemergence, scale 0 to 10, 0 no effect, 10 complete control
smiles,measurement,setting,value
CC(C)N(C(=O)n1oc(=O)n(C2(C)CC2)c1=O)c1ccc(Cl)cc1 [Compound 361],"Plant response rating, Cocklebur",[1]; [17],0
same,"Plant response rating, Cocklebur",[1]; [18],0
same,"Plant response rating, Cocklebur",[1]; [19],0
same,Cocklebur plant response rating (0 to 10 scale),"[1]; Preemergence, Rate 125 g/ha",0
same,Cocklebur plant response rating,"[1]; Preemergence, Rate 250 g/ha",0
same,Cocklebur plant response rating,"[1]; Preemergence, Rate 500 g/ha",0
same,Cocklebur plant response rating,"[1]; Rate 62 g/ha, Postemergence",0
same,"Plant response rating, Cocklebur",[1]; [20],2
same,"Plant response rating, Nutsedge",[2]; [17],0
same,"Plant response rating, Nutsedge",[2]; [18],0
same,"Plant response rating, Nutsedge",[2]; [19],0
same,Nutsedge plant response rating (0 to 10 scale),"[2]; Preemergence, Rate 125 g/ha",0
same,Nutsedge plant response rating,"[2]; Preemergence, Rate 250 g/ha",0
same,Nutsedge plant response rating,"[2]; Preemergence, Rate 500 g/ha",0
same,Nutsedge plant response rating,"[2]; Rate 62 g/ha, Postemergence",0
same,"Plant response rating, Nutsedge",[2]; [20],0
same,"Plant response rating, Soybean",[3]; [17],4
same,"Plant response rating, Soybean",[3]; [18],5
same,"Plant response rating, Soybean",[3]; [19],0
same,Soybean plant response rating (0 to 10 scale),"[3]; Preemergence, Rate 125 g/ha",0
same,Soybean plant response rating,"[3]; Preemergence, Rate 250 g/ha",0
same,Soybean plant response rating,"[3]; Preemergence, Rate 500 g/ha",1
same,Soybean plant response rating,"[3]; Rate 62 g/ha, Postemergence",2
same,"Plant response rating, Soybean",[3]; [20],5
same,"Plant response rating, Blackgrass",[4]; [17],7
same,"Plant response rating, Blackgrass",[4]; [18],8
same,"Plant response rating, Blackgrass",[4]; [19],3
same,Blackgrass plant response rating (0 to 10 scale),"[4]; Preemergence, Rate 125 g/ha",8
same,Blackgrass plant response rating,"[4]; Preemergence, Rate 250 g/ha",10
same,Blackgrass plant response rating,"[4]; Preemergence, Rate 500 g/ha",10
same,Blackgrass plant response rating,"[4]; Rate 62 g/ha, Postemergence",5
same,"Plant response rating, Blackgrass",[4]; [20],8
same,"Plant response rating, Bedstraw",[5]; [17],7
same,"Plant response rating, Bedstraw",[5]; [18],8
same,"Plant response rating, Bedstraw",[5]; [19],0
same,Bedstraw plant response rating (0 to 10 scale),"[5]; Preemergence, Rate 125 g/ha",0
same,Bedstraw plant response rating,"[5]; Preemergence, Rate 250 g/ha",0
same,Bedstraw plant response rating,"[5]; Preemergence, Rate 500 g/ha",2
same,Bedstraw plant response rating,"[5]; Rate 62 g/ha, Postemergence",7
same,"Plant response rating, Bedstraw",[5]; [20],8
same,"Plant response rating, Morningglory",[6]; [17],2
same,"Plant response rating, Morningglory",[6]; [18],7
same,"Plant response rating, Morningglory",[6]; [19],0
same,Morningglory plant response rating (0 to 10 scale),"[6]; Preemergence, Rate 125 g/ha",0
same,Morningglory plant response rating,"[6]; Preemergence, Rate 250 g/ha",0
same,Morningglory plant response rating,"[6]; Preemergence, Rate 500 g/ha",0
same,Morningglory plant response rating,"[6]; Rate 62 g/ha, Postemergence",1
same,"Plant response rating, Wild oats",[7]; [17],2
same,"Plant response rating, Wild oats",[7]; [18],6
same,"Plant response rating, Wild oats",[7]; [19],7
same,Wild oats plant response rating (0 to 10 scale),"[7]; Preemergence, Rate 125 g/ha",8
same,Wild oats plant response rating,"[7]; Preemergence, Rate 250 g/ha",8
same,Wild oats plant response rating,"[7]; Preemergence, Rate 500 g/ha",10
same,Wild oats plant response rating,"[7]; Rate 62 g/ha, Postemergence",0
same,"Plant response rating, Wild oats",[7]; [20],6
same,"Plant response rating, Sugarbeets",[8]; [17],5
same,"Plant response rating, Sugarbeets",[8]; [18],5
same,"Plant response rating, Sugarbeets",[8]; [19],0
same,Sugarbeets plant response rating (0 to 10 scale),"[8]; Preemergence, Rate 125 g/ha",2
same,Sugarbeets plant response rating,"[8]; Preemergence, Rate 250 g/ha",6
same,Sugarbeets plant response rating,"[8]; Preemergence, Rate 500 g/ha",6
same,Sugarbeets plant response rating,"[8]; Rate 62 g/ha, Postemergence",2
same,"Plant response rating, Sugarbeets",[8]; [20],6
same,"Plant response rating, Giant foxtail",[9]; [17],4
same,"Plant response rating, Giant foxtail",[9]; [18],5
same,"Plant response rating, Giant foxtail",[9]; [19],7
same,Giant foxtail plant response rating (0 to 10 scale),"[9]; Preemergence, Rate 125 g/ha",9
same,Giant foxtail plant response rating,"[9]; Preemergence, Rate 250 g/ha",10
same,Giant foxtail plant response rating,"[9]; Preemergence, Rate 500 g/ha",10
same,Giant foxtail plant response rating,"[9]; Rate 62 g/ha, Postemergence",1
same,"Plant response rating, Giant foxtail",[9]; [20],5
same,"Plant response rating, Wheat",[10]; [17],0
same,"Plant response rating, Wheat",[10]; [18],0
same,"Plant response rating, Wheat",[10]; [19],0
same,Wheat plant response rating (0 to 10 scale),"[10]; Preemergence, Rate 125 g/ha",0
same,Wheat plant response rating,"[10]; Preemergence, Rate 250 g/ha",2
same,Wheat plant response rating,"[10]; Preemergence, Rate 500 g/ha",6
same,Wheat plant response rating,"[10]; Rate 62 g/ha, Postemergence",0
same,"Plant response rating, Wheat",[10]; [20],2
same,"Plant response rating, Crabgrass",[11]; [17],2
same,"Plant response rating, Crabgrass",[11]; [18],2
same,"Plant response rating, Crabgrass",[11]; [19],2
same,Crabgrass plant response rating (0 to 10 scale),"[11]; Preemergence, Rate 125 g/ha",7
same,Crabgrass plant response rating,"[11]; Preemergence, Rate 250 g/ha",7
same,Crabgrass plant response rating,"[11]; Preemergence, Rate 500 g/ha",9
same,Crabgrass plant response rating,"[11]; Rate 62 g/ha, Postemergence",0
same,"Plant response rating, Crabgrass",[11]; [20],5
same,"Plant response rating, B. signalgrass",[12]; [17],0
same,"Plant response rating, B. signalgrass",[12]; [18],3
same,"Plant response rating, B. signalgrass",[12]; [19],3
same,"B. signalgrass plant response rating (0 to 10 scale, 0 is no effect, 10 is complete control)","[12]; Preemergence, Rate 125 g/ha",4
same,B. signalgrass plant response rating,"[12]; Preemergence, Rate 250 g/ha",4
same,B. signalgrass plant response rating,"[12]; Preemergence, Rate 500 g/ha",6
same,B. signalgrass plant response rating,"[12]; Rate 62 g/ha, Postemergence",0
same,"Plant response rating, B. signalgrass",[12]; [20],4
same,"Plant response rating, Redroot pigweed",[13]; [17],5
same,"Plant response rating, Redroot pigweed",[13]; [18],6
same,"Plant response rating, Redroot pigweed",[13]; [19],1
same,Redroot pigweed plant response rating (0 to 10 scale),"[13]; Preemergence, Rate 125 g/ha",7
same,Redroot pigweed plant response rating,"[13]; Preemergence, Rate 250 g/ha",8
same,Redroot pigweed plant response rating,"[13]; Preemergence, Rate 500 g/ha",10
same,Redroot pigweed plant response rating,"[13]; Rate 62 g/ha, Postemergence",3
same,"Plant response rating, Redroot pigweed",[13]; [20],7
same,"Plant response rating, Corn",[14]; [17],0
same,"Plant response rating, Corn",[14]; [18],0
same,"Plant response rating, Corn",[14]; [19],0
same,Corn plant response rating (0 to 10 scale),"[14]; Preemergence, Rate 125 g/ha",0
same,Corn plant response rating,"[14]; Preemergence, Rate 250 g/ha",1
same,Corn plant response rating,"[14]; Preemergence, Rate 500 g/ha",6
same,Corn plant response rating,"[14]; Rate 62 g/ha, Postemergence",0
same,"Plant response rating, Corn",[14]; [20],0
same,"Plant response rating, Rape",[15]; [17],3
same,"Plant response rating, Rape",[15]; [18],3
same,"Plant response rating, Rape",[15]; [19],4
same,Rape plant response rating (0 to 10 scale),"[15]; Preemergence, Rate 125 g/ha",5
same,Rape plant response rating,"[15]; Preemergence, Rate 250 g/ha",5
same,Rape plant response rating,"[15]; Preemergence, Rate 500 g/ha",6
same,Rape plant response rating,"[15]; Rate 62 g/ha, Postemergence",2
same,"Plant response rating, Rape",[15]; [20],4
same,"Plant response rating, Velvetleaf",[16]; [17],0
same,"Plant response rating, Velvetleaf",[16]; [18],0
same,"Plant response rating, Velvetleaf",[16]; [19],0
same,Velvetleaf plant response rating (0 to 10 scale),"[16]; Preemergence, Rate 125 g/ha",0
same,Velvetleaf plant response rating,"[16]; Preemergence, Rate 250 g/ha",4
same,Velvetleaf plant response rating,"[16]; Preemergence, Rate 500 g/ha",5
same,Velvetleaf plant response rating,"[16]; Rate 62 g/ha, Postemergence",0
same,"Plant response rating, Velvetleaf",[16]; [20],3
